Experimental data from PMC11823630, “In vitro potentiation of tetracyclines in Pseudomonas aeruginosa by RW01, a new cyclic peptide” (Antimicrobial Agents and Chemotherapy, 2024).
≈ marks a conversion by molar mass, not a printed value.

What was measured:
[1] = tested on: P. aeruginosa PAOUW∆oprF; test: MIC, CLSI broth microdilution in BD Phoenix AST Broth; type: cell-based, Pseudomonas aeruginosa; details: Pseudomonas aeruginosa, strain PAOUWΔoprF; agent alone; 37°C, 18–22 h; three biological replicates
Procedure: (§1) MIC for RW01 was also tested.
(§2) FIC of RW01 (FICRW01)=MIC of RW01 in combination/MIC of RW01 alone,FIC of antibiotic (FICATB)=MIC of ATB in combination/MIC of ATB alone,FICI=FICRW01 +FICATB.
(§3) FICI was interpreted as follows: synergistic effect if FICI is ≤0.5; additive effect if 0.5 < FICI ≤ 1.0; indifferent effect if 1.0 < FICI ≤ 2.0; and finally, antagonistic effect if FICI is >2.0. The average FICI considering the antibiotic MIC (no growth in any of the replicates) at different concentrations of RW01 was calculated ([28]).

[2] = tested on: P. aeruginosa PAOΔmexR; test: as above; type: cell-based, Pseudomonas aeruginosa; details: Pseudomonas aeruginosa
Procedure: as §1, §2, §3

[3] = tested on: P. aeruginosa 41A; test: as above; type: cell-based, Pseudomonas aeruginosa; details: Pseudomonas aeruginosa; strain 41A; agent alone; 37°C, 18–22 h; three biological replicates
Procedure: as §1, §2, §3

[4] = tested on: P. aeruginosa PAO1; test: as above; type: cell-based, Pseudomonas aeruginosa; details: Pseudomonas aeruginosa, PAO1, strain PAO1; agent alone; 37°C, 18–22 h; three biological replicates; read-out: MIC
Procedure: as §1, §2, §3

[5] = tested on: P. aeruginosa PAOUW; test: as above; type: cell-based, Pseudomonas aeruginosa; details: Pseudomonas aeruginosa, strain PAOUW; agent alone; 37°C, 18–22 h; three biological replicates; read-out: MIC
Procedure: as §1, §2, §3

[6] = tested on: P. aeruginosa 125B; test: as above; type: cell-based, Pseudomonas aeruginosa; details: strain 125B; for MIC: Pseudomonas aeruginosa, agent alone, 37°C, 18–22 h, three biological replicates
Procedure: as §1, §2, §3

[7] = tested on: P. aeruginosa PAOΔmexZ; test: as above; type: cell-based, Pseudomonas aeruginosa; details: Pseudomonas aeruginosa, strain PAOΔmexZ; agent alone; 37°C, 18–22 h; three biological replicates
Procedure: as §1, §2, §3

[8] = tested on: P. aeruginosa 125A; test: as above; type: cell-based, Pseudomonas aeruginosa; details: strain 125A; for MIC: Pseudomonas aeruginosa, agent alone, 37°C, 18–22 h, three biological replicates
Procedure: as §1, §2, §3

[9] = tested on: P. aeruginosa PAOΔoprM; test: as above; type: cell-based, Pseudomonas aeruginosa; details: Pseudomonas aeruginosa
Procedure: as §1, §2, §3

[10] = tested on: P. aeruginosa 41B; test: as above; type: cell-based, Pseudomonas aeruginosa; details: Pseudomonas aeruginosa; strain 41B; agent alone; 37°C, 18–22 h; three biological replicates
Procedure: as §1, §2, §3

[11] = tested on: PAO1 mutant MIN16_3, nfxB(nt79∆14), pilB(N349K); test: MIC, Sensititre custom plate; type: cell-based; details: Pseudomonas aeruginosa, PAO1, read-out: MIC, Sensititre
Procedure: (§4) Selection of resistant mutants was performed for minocycline with and without RW01 in three independent replicates for wild-type P. aeruginosa reference strain PAO1. Tubes containing Mueller-Hinton broth (MHB) were inoculated and incubated for 24 h at 37°C. Afterward, 1/100 dilution of each tube was incubated at 37°C in MHB to late-exponential growth phase, measured by spectrophotometry at OD600. […] A control plate without antibiotic was included as inoculum control. After overnight incubation, colony counting of each treatment was performed to analyze the generation of resistant population. The mutant prevention concentration (MPC) was defined as the lowest concentration of antibiotic yielding no growth of resistant mutants. Selected mutants were checked for susceptibility profiles by using a Sensititre custom plate (Thermo Fisher Scientific, Massachusetts, USA) for Gram-negative bacteria, following the manufacturer’s instructions.

[12] = tested on: PAO1 mutant MIN4_RW01_1, pmrB(R429H); test: MIC, Sensititre custom plate; type: cell-based; details: Pseudomonas aeruginosa, PAO1, read-out: MIC, Sensititre
Procedure: as §4

[13] = tested on: PAO1 mutant MIN8_4, pilZ(nt18InsT); test: MIC, Sensititre custom plate; type: cell-based; details: Pseudomonas aeruginosa, PAO1, read-out: MIC, Sensititre
Procedure: as §4

[14] = tested on: PAO1 mutant MIN2_RW01_4, pmrB(M292T); test: MIC, Sensititre custom plate; type: cell-based; details: Pseudomonas aeruginosa, PAO1, read-out: MIC, Sensititre
Procedure: as §4

[15] = tested on: PAO1 mutant MIN4_RW01_4, pmrB(Y98N); test: MIC, Sensititre custom plate; type: cell-based; details: Pseudomonas aeruginosa, PAO1, read-out: MIC, Sensititre
Procedure: as §4

[16] = tested on: PAO1 mutant MIN8_3, pilZ(nt18InsT); test: MIC, Sensititre custom plate; type: cell-based; details: Pseudomonas aeruginosa, PAO1, read-out: MIC, Sensititre
Procedure: as §4

[17] = tested on: PAO1 mutant MIN16_1, nalD(T43P); test: MIC, Sensititre custom plate; type: cell-based; details: Pseudomonas aeruginosa, PAO1, read-out: MIC, Sensititre
Procedure: as §4

[18] = tested on: PAO1 mutant MIN4_RW01_3, pmrB(M292T); test: MIC, Sensititre custom plate; type: cell-based; details: Pseudomonas aeruginosa, PAO1, read-out: MIC, Sensititre
Procedure: as §4

[19] = tested on: PAO1 mutant MIN16_4, nalC(T50P), pilM(Q62X); test: MIC, Sensititre custom plate; type: cell-based; details: Pseudomonas aeruginosa, PAO1, read-out: MIC, Sensititre
Procedure: as §4

[20] = tested on: PAO1 mutant MIN32_1, mexR(R63H), pilB(N349K), PA0646(V316G); test: MIC, Sensititre custom plate; type: cell-based; details: Pseudomonas aeruginosa, PAO1, read-out: MIC, Sensititre
Procedure: as §4

[21] = tested on: PAO1 mutant MIN2_RW01_2, pmrB(M292T); test: MIC, Sensititre custom plate; type: cell-based; details: Pseudomonas aeruginosa, PAO1, read-out: MIC, Sensititre
Procedure: as §4

[22] = tested on: PAO1 mutant MIN16_2, nalC(aa9∆4), pilQ(nt46∆1); test: MIC, Sensititre custom plate; type: cell-based; details: Pseudomonas aeruginosa, PAO1, read-out: MIC, Sensititre
Procedure: as §4

[23] = tested on: PAO1 mutant MIN8_2, pilZ(nt18InsT); test: MIC, Sensititre custom plate; type: cell-based; details: Pseudomonas aeruginosa, PAO1, read-out: MIC, Sensititre
Procedure: as §4

[24] = tested on: PAO1 mutant MIN8_1, nalD(R3C), pilM(Q62X); test: MIC, Sensititre custom plate; type: cell-based; details: Pseudomonas aeruginosa, PAO1, read-out: MIC, Sensititre
Procedure: as §4

[25] = tested on: PAO1 mutant MIN1_RW01_3, pmrB(V215L); test: MIC, Sensititre custom plate; type: cell-based; details: Pseudomonas aeruginosa, PAO1, read-out: MIC, Sensititre
Procedure: as §4

[26] = tested on: PAO1 mutant MIN2_RW01_1, pmrB(V215L); test: MIC, Sensititre custom plate; type: cell-based; details: Pseudomonas aeruginosa, PAO1, read-out: MIC, Sensititre
Procedure: as §4

[27] = tested on: PAO1 mutant MIN1_RW01_1, pmrB(Y98N); test: MIC, Sensititre custom plate; type: cell-based; details: Pseudomonas aeruginosa, PAO1, read-out: MIC, Sensititre
Procedure: as §4

[28] = tested on: PAO1 mutant MIN1_RW01_2, mexR(G58E), pilB(G326D), hutC(Y181X); test: MIC, Sensititre custom plate; type: cell-based; details: Pseudomonas aeruginosa, PAO1, read-out: MIC, Sensititre
Procedure: as §4

[29] = tested on: P. aeruginosa PAO1, WT; test: MIC, Sensititre custom plate; type: cell-based; details: Pseudomonas aeruginosa, PAO1, read-out: MIC, Sensititre
Procedure: as §4

[30] = tested on: PAO1 mutant MIN2_RW01_3, parS(V152A); test: MIC, Sensititre custom plate; type: cell-based; details: Pseudomonas aeruginosa, PAO1, read-out: MIC, Sensititre
Procedure: as §4

[31] = tested on: PAO1 mutant MIN1_RW01_4, pmrB(F124L); test: microbe, parasite or virus in culture; type: cell-based; details: Pseudomonas aeruginosa, PAO1, read-out: MIC, Sensititre
Procedure: as §4

[32] = tested on: PAO1 mutant MIN4_RW01_2, pmrB(F124S); test: microbe, parasite or virus in culture; type: cell-based; details: Pseudomonas aeruginosa, PAO1, read-out: MIC, Sensititre
Procedure: as §4

[33] = antibiotic MIC alone vs with RW01 100 mg/L

In the case of `O=C(N[C@H](CO)[C@H](O)c1ccc([N+](=O)[O-])cc1)C(Cl)Cl` [Chloramphenicol, chloramphenicol], the MIC [1] is reported as 32 µg/mL, the MIC [2] is reported as 32 µg/mL and the MIC [3] is reported as 128 µg/mL. The MIC [4] was 32 µg/mL, the MIC [5] was > 512 µg/mL and the MIC [6] was 64 µg/mL. For the same compound, the “Potentiation (fold)” value [6, 33] was ≥ 8 fold, the MIC [7] was 32 µg/mL and the MIC [8] was 128 µg/mL. For the same compound, the “Potentiation (fold)” value [8, 33] was ≥ 8 fold, the MIC [9] was 4 µg/mL and the MIC [10] was 128 µg/mL.
`C[C@H]1COc2c(N3CCN(C)CC3)c(F)cc3c(=O)c(C(=O)O)cn1c23` [Levofloxacin, levofloxacin] was tested, and the MIC [1] was 0.5 µg/mL, the MIC [2] was 0.5 µg/mL and the MIC [3] was 2 µg/mL. For the same compound, the MIC [4] was 0.5 µg/mL, the MIC [5] was 4 µg/mL and the MIC [6] was 0.5 µg/mL. It also gave an MIC [7] of 0.5 µg/mL, an MIC [8] of 0.5 µg/mL and an MIC [9] of 0.125 µg/mL. For the same compound, the MIC [10] was 1 µg/mL.
Work on `CCN[C@@H]1C[C@H](N)[C@@H](O[C@H]2OC(CN)=CC[C@H]2N)[C@H](O)[C@H]1O[C@H]1OC[C@](C)(O)[C@H](NC)[C@H]1O` [Netilmicin, netilmicin] yielded an MIC [1] of 8 µg/mL, an MIC [2] of 8 µg/mL and an MIC [3] of 8 µg/mL. It also gave an MIC [4] of 8 µg/mL, an MIC [5] of 2 µg/mL and an MIC [6] of 8 µg/mL. The MIC [7] was 8 µg/mL, the MIC [8] was 8 µg/mL and the MIC [9] was 1 µg/mL. For the same compound, the MIC [10] was 8 µg/mL.
With `CCn1cc(C(=O)O)c(=O)c2cc(F)c(N3CCNCC3)cc21` [Norfloxacin, norfloxacin] the MIC [1] was 1 µg/mL, the MIC [2] was 1 µg/mL and the MIC [3] was 2 µg/mL. For the same compound, the MIC [4] was 0.5 µg/mL, the MIC [5] was 4 µg/mL and the MIC [6] was 1 µg/mL. For the same compound, the MIC [7] was 1 µg/mL, the MIC [8] was 1 µg/mL and the MIC [9] was 0.25 µg/mL. For the same compound, the MIC [10] was 4 µg/mL.
Work on `CC1(C)S[C@@H]2[C@H](NC(=O)[C@H](C(=O)O)c3ccsc3)C(=O)N2[C@H]1C(=O)O` [TIC, ticarcillin] yielded an MIC [11] of 16 µg/mL (≈ 41.6 µM), an MIC [12] of 128 µg/mL (≈ 333 µM) and an MIC [13] of 64 µg/mL (≈ 166 µM). For the same compound, the MIC [14] was 32 µg/mL (≈ 83.2 µM), the MIC [15] was 16 µg/mL (≈ 41.6 µM) and the MIC [16] was 64 µg/mL (≈ 166 µM). For the same compound, the MIC [17] was 64 µg/mL (≈ 166 µM), the MIC [18] was 16 µg/mL (≈ 41.6 µM) and the MIC [19] was 64 µg/mL (≈ 166 µM). For the same compound, the MIC [20] was 128 µg/mL (≈ 333 µM), the MIC [21] was 32 µg/mL (≈ 83.2 µM) and the MIC [22] was 64 µg/mL (≈ 166 µM). It also gave an MIC [23] of 64 µg/mL (≈ 166 µM), an MIC [24] of 64 µg/mL (≈ 166 µM) and an MIC [25] of 16 µg/mL (≈ 41.6 µM). It also gave an MIC [26] of 64 µg/mL (≈ 166 µM), an MIC [27] of 16 µg/mL (≈ 41.6 µM) and an MIC [28] of 128 µg/mL (≈ 333 µM). For the same compound, the MIC [29] was 16 µg/mL (≈ 41.6 µM), the MIC [30] was 16 µg/mL (≈ 41.6 µM) and the MIC [31] was 16 µg/mL (≈ 41.6 µM). The MIC [32] was 16 µg/mL (≈ 41.6 µM).
